Results from PubChem BioAssay AID1963850 (Molecular Pharmacology Branch, DTP, NCI, 2024).

Test system: 192522-019-R-J2-PDC complex tumor spheroid viability
Assay: Anticancer human tumor 192522-019-R-J2-PDC patient-derived colon adenocarcinoma cell line growth inhibition [POLQ]
Settings: for IC50: curve of first compound; for viability, T/C: stronger effect = lower value
How it was run: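 Three-cell-type spheroids modelling solid tumor plus stroma served as the readout system; POL inhibitors were tested individually and in combination, concentration ranges set by clinical Cmax where known.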

[1] = second compound 0.0316 µM, first compound 0.0316 µM
[2] = second compound 0.0316 µM, first compound 0.1 µM
[3] = second compound 0.0316 µM, first compound 0.316 µM
[4] = second compound 0.0316 µM, first compound 1 µM
[5] = second compound 0.0316 µM, first compound 3.16 µM
[6] = second compound 0.0316 µM, first compound 10 µM
[7] = second compound 0.1 µM, first compound 0.0316 µM
[8] = second compound 0.1 µM, first compound 0.1 µM
[9] = second compound 0.1 µM, first compound 0.316 µM
[10] = second compound 0.1 µM, first compound 1 µM
[11] = second compound 0.1 µM, first compound 3.16 µM
[12] = second compound 0.1 µM, first compound 10 µM
[13] = second compound 0.316 µM, first compound 0.0316 µM
[14] = second compound 0.316 µM, first compound 0.1 µM
[15] = second compound 0.316 µM, first compound 0.316 µM
[16] = second compound 0.316 µM, first compound 1 µM
[17] = second compound 0.316 µM, first compound 3.16 µM
[18] = second compound 0.316 µM, first compound 10 µM
[19] = second compound 1 µM, first compound 0.0316 µM
[20] = second compound 1 µM, first compound 0.1 µM
[21] = second compound 1 µM, first compound 0.316 µM
[22] = second compound 1 µM, first compound 1 µM
[23] = second compound 1 µM, first compound 3.16 µM
[24] = second compound 1 µM, first compound 10 µM
[25] = second compound 3.16 µM, first compound 0.0316 µM
[26] = second compound 3.16 µM, first compound 0.1 µM
[27] = second compound 3.16 µM, first compound 0.316 µM
[28] = second compound 3.16 µM, first compound 1 µM
[29] = second compound 3.16 µM, first compound 3.16 µM
[30] = second compound 3.16 µM, first compound 10 µM
[31] = second compound 10 µM, first compound 0.0316 µM
[32] = second compound 10 µM, first compound 0.1 µM
[33] = second compound 10 µM, first compound 0.316 µM
[34] = second compound 10 µM, first compound 1 µM
[35] = second compound 10 µM, first compound 3.16 µM
[36] = second compound 10 µM, first compound 10 µM
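Note: spheroids exposed to drugs for seven days before reading.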
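Throughout, for viability, T/C: 100% = DMSO vehicle control viability in luminescence.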

CNCc1ccc(-c2[nH]c3cc(F)cc4c3c2CCNC4=O)cc1 + Cc1cccc(N(C)C(=O)C2C(O)CCN2c2nc(C)cc(C(F)(F)F)c2C#N)c1
IC50 (second compound 0.0316 µM): > 10 µM | IC50 (second compound 0.1 µM): > 10 µM | IC50 (second compound 0.316 µM): > 10 µM | IC50 (second compound 1 µM): > 10 µM | IC50 (second compound 3.16 µM): > 10 µM | IC50 (second compound 10 µM): > 10 µM | viability, T/C [1]: 109% | viability, T/C [2]: 96.2% | viability, T/C [3]: 96.8% | viability, T/C [4]: 100% | viability, T/C [5]: 121% | viability, T/C [6]: 91.2% | viability, T/C [7]: 103% | viability, T/C [8]: 104% | viability, T/C [9]: 112% | viability, T/C [10]: 108% | viability, T/C [11]: 101% | viability, T/C [12]: 111% | viability, T/C [13]: 101% | viability, T/C [14]: 113% | viability, T/C [15]: 111% | viability, T/C [16]: 103% | viability, T/C [17]: 106% | viability, T/C [18]: 102% | viability, T/C [19]: 108% | viability, T/C [20]: 115% | viability, T/C [21]: 103% | viability, T/C [22]: 112% | viability, T/C [23]: 104% | viability, T/C [24]: 110% | viability, T/C [25]: 113% | viability, T/C [26]: 113% | viability, T/C [27]: 102% | viability, T/C [28]: 102% | viability, T/C [29]: 122% | viability, T/C [30]: 110% | viability, T/C [31]: 107% | viability, T/C [32]: 106% | viability, T/C [33]: 112% | viability, T/C [34]: 107% | viability, T/C [35]: 113% | viability, T/C [36]: 108%

Nc1ccn(C2OC(CO)C(O)C2(F)F)c(=O)n1 (stereo not drawn) + Cc1cccc(N(C)C(=O)C2C(O)CCN2c2nc(C)cc(C(F)(F)F)c2C#N)c1
IC50 (second compound 0.0316 µM): > 10 µM | IC50 (second compound 0.1 µM): > 10 µM | IC50 (second compound 0.316 µM): > 10 µM | IC50 (second compound 1 µM): > 10 µM | IC50 (second compound 3.16 µM): > 10 µM | IC50 (second compound 10 µM): > 10 µM | viability, T/C [1]: 95.9% | viability, T/C [2]: 81.6% | viability, T/C [3]: 81.8% | viability, T/C [4]: 76.2% | viability, T/C [5]: 70.3% | viability, T/C [6]: 57.2% | viability, T/C [7]: 95.9% | viability, T/C [8]: 95.7% | viability, T/C [9]: 80.6% | viability, T/C [10]: 76.5% | viability, T/C [11]: 66.6% | viability, T/C [12]: 55.5% | viability, T/C [13]: 108% | viability, T/C [14]: 95.3% | viability, T/C [15]: 83.2% | viability, T/C [16]: 76.3% | viability, T/C [17]: 65.8% | viability, T/C [18]: 57.6% | viability, T/C [19]: 104% | viability, T/C [20]: 90% | viability, T/C [21]: 80.6% | viability, T/C [22]: 79.9% | viability, T/C [23]: 72.3% | viability, T/C [24]: 56.5% | viability, T/C [25]: 105% | viability, T/C [26]: 98.6% | viability, T/C [27]: 88.6% | viability, T/C [28]: 74% | viability, T/C [29]: 77% | viability, T/C [30]: 59.7% | viability, T/C [31]: 108% | viability, T/C [32]: 83.4% | viability, T/C [33]: 80.5% | viability, T/C [34]: 74.3% | viability, T/C [35]: 76.5% | viability, T/C [36]: 62.3%

O=C(c1cc(Cc2n[nH]c(=O)c3ccccc23)ccc1F)N1CCN(C(=O)C2CC2)CC1 + Cc1cccc(N(C)C(=O)C2C(O)CCN2c2nc(C)cc(C(F)(F)F)c2C#N)c1
IC50 (second compound 0.0316 µM): > 10 µM | IC50 (second compound 0.1 µM): > 10 µM | IC50 (second compound 0.316 µM): > 10 µM | IC50 (second compound 1 µM): > 10 µM | IC50 (second compound 3.16 µM): > 10 µM | IC50 (second compound 10 µM): > 10 µM | viability, T/C [1]: 101% | viability, T/C [2]: 82.3% | viability, T/C [3]: 98% | viability, T/C [4]: 88.1% | viability, T/C [5]: 98.5% | viability, T/C [6]: 92.6% | viability, T/C [7]: 107% | viability, T/C [8]: 92.8% | viability, T/C [9]: 107% | viability, T/C [10]: 95.9% | viability, T/C [11]: 100% | viability, T/C [12]: 101% | viability, T/C [13]: 97.8% | viability, T/C [14]: 94.9% | viability, T/C [15]: 101% | viability, T/C [16]: 96.1% | viability, T/C [17]: 106% | viability, T/C [18]: 93.2% | viability, T/C [19]: 96.1% | viability, T/C [20]: 106% | viability, T/C [21]: 104% | viability, T/C [22]: 96.9% | viability, T/C [23]: 111% | viability, T/C [24]: 106% | viability, T/C [25]: 102% | viability, T/C [26]: 111% | viability, T/C [27]: 107% | viability, T/C [28]: 91.3% | viability, T/C [29]: 103% | viability, T/C [30]: 111% | viability, T/C [31]: 99.9% | viability, T/C [32]: 98.5% | viability, T/C [33]: 103% | viability, T/C [34]: 93.7% | viability, T/C [35]: 116% | viability, T/C [36]: 109%

O=c1[nH]cc(F)c(=O)[nH]1 + Cc1cccc(N(C)C(=O)C2C(O)CCN2c2nc(C)cc(C(F)(F)F)c2C#N)c1
IC50 (second compound 0.0316 µM): > 10 µM | IC50 (second compound 0.1 µM): > 10 µM | IC50 (second compound 0.316 µM): > 10 µM | IC50 (second compound 1 µM): > 10 µM | IC50 (second compound 3.16 µM): > 10 µM | IC50 (second compound 10 µM): > 10 µM | viability, T/C [1]: 111% | viability, T/C [2]: 88.5% | viability, T/C [3]: 76.8% | viability, T/C [4]: 87.2% | viability, T/C [5]: 91.3% | viability, T/C [6]: 72.4% | viability, T/C [7]: 103% | viability, T/C [8]: 92.8% | viability, T/C [9]: 84.6% | viability, T/C [10]: 81.7% | viability, T/C [11]: 81% | viability, T/C [12]: 85.3% | viability, T/C [13]: 95.5% | viability, T/C [14]: 95.9% | viability, T/C [15]: 85% | viability, T/C [16]: 80.7% | viability, T/C [17]: 78% | viability, T/C [18]: 86.1% | viability, T/C [19]: 96.8% | viability, T/C [20]: 92.9% | viability, T/C [21]: 87.1% | viability, T/C [22]: 96.1% | viability, T/C [23]: 89% | viability, T/C [24]: 82.9% | viability, T/C [25]: 112% | viability, T/C [26]: 88.9% | viability, T/C [27]: 87.1% | viability, T/C [28]: 81.4% | viability, T/C [29]: 93.1% | viability, T/C [30]: 78.6% | viability, T/C [31]: 106% | viability, T/C [32]: 89.1% | viability, T/C [33]: 81.6% | viability, T/C [34]: 83.6% | viability, T/C [35]: 88.3% | viability, T/C [36]: 75.9%
